Counter-ions that a name gives are not always drawn.
Experiments:
[1] = target: T1, β2-adrenoreceptors (Cavia porcellus, UniProt Q8K4Z4); experiment: Guinea-pig tracheal strip preparation (relaxation of PGF2a-contracted trachea); type: cell-based; conditions: equipotent concentration = EC50 test compound / EC50 isoprenaline; tracheal rings contracted with prostaglandin F2a (2.9x10^-6M), 37°
T1 construct: from tissue; host or cells: isolated guinea-pig trachea (tracheal rings)
Procedure: The compounds according to the invention have a selective stimulant action at P2-adrenoreceptors, which furthermore is of a particularly advantageous profile. […] Compounds according to the invention have shown a particularly long duration of action in this test.
The stimulant action at β2-adrenoreceptors of compounds of the invention was determined using the following:
GUINEA-PIG TRACHEAL STRIP PREPARATION
Tracheal rings were mounted in a superfusion apparatus, and continuously superfused with oxygenated physiological (Kreb's) solution containing indomethacin (2.4x10 ^6M) and atropine (4x10^-7M) at 37° at a rate of 2ml/min. Changes in tension of the preparation were measured using an isometric strain gauge. Preparations were contracted for the duration of the test by the inclusion of prostaglandin F2a (2.9x10^-6M) in the superfusion fluid. Two bolus dose-effect curves to the standard, isoprenaline, (1x10^-12-1x10^-9 moles) were obtained at the start of each test in a cumulative fashion, allowing the relaxation obtained with each to reach its own maximum before the next increment was made. On completion of this dose-effect curve, sufficient time was allowed for the tissue to recover (15-30min). After this time, sequential concentration-effect curves were constructed for first isoprenaline and then the test compound. These were constructed as follows: a low concentration (isoprenaline 3x10-^10M; test compound 1x10^-10M) was infused until any response obtained had reached its maximum, then the infusion was stopped and the tissue allowed to recover for a maximum of 30min. After this period the procedure was repeated using progressively increasing concentrations of agonist, and in this way, whole concentration-effect curves obtained. Potency was determined by comparison of the concentration-effect curve thus constructed with that previously obtained for isoprenaline and expressed as equipotent concentration (isoprenaline = 1) i.e. EC50 test compound was calculated.
Duration of action was also measured for each response, and is the time taken from stopping the infusion to 50% recovery. Graphs were drawn for duration times against response magnitude, and from these, duration times for 50% maximum responses were determined.

[2] = tested on: guinea pigs; experiment: Oral administration to guinea pigs, adverse effects; type: in vivo; conditions: administered orally to guinea pigs at a dose of 5mg/kg
Source text: In general, the compounds according to the invention are non-toxic at therapeutically useful doses.

T1 sequence (Q8K4Z4 whole entry): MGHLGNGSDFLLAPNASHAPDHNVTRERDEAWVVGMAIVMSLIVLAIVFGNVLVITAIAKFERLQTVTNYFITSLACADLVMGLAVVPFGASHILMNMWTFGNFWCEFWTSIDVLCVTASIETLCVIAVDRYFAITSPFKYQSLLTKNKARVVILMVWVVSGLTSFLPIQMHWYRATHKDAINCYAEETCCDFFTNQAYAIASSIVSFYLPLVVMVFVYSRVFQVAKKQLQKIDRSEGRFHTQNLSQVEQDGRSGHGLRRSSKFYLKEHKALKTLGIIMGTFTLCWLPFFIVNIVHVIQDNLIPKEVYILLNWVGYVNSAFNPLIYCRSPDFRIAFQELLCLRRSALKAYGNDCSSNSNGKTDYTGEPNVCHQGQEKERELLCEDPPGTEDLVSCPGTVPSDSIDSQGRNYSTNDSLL

SMILES | Potency (Isoprenaline = 1) [1] | adverse effects [2]
CC(CCCCCOCCc1ccccc1)NCC(O)c1cc(O)cc(O)c1 (stereo not shown) [Example 12, 5-[1-Hydroxy-2-[[1-methyl-6-(2-phenylethoxy)hexyl]amino]ethyl]-1,3-benzenediol benzoate (salt)] | 0.15 | 
CC(CCCCCOCCc1ccc(F)cc1)NCC(O)c1cc(O)cc(O)c1 (stereo not shown) [Example 14, 5-[2-[[6-[2-(4-Fluorophenyl)ethoxy]-1-methylhexyl]amino]-1-hydroxyethyl]-1,3-benzenediol, benzoate (salt)] | 0.13 | 
Oc1cc(O)cc(C(O)CNCCCCCCOCCCCc2ccccc2)c1 (stereo not shown) [Example 10, 5-[1-Hydroxy-2-[[6-(4-phenylbutoxy)hexyl]amino]ethyl]-1,3-benzenediol] |  | no adverse effects
COc1ccc(CCOCCCCCCNCC(O)c2ccc(O)c(O)c2)cc1 (stereo not drawn) [Example 17, 4-[l-Hydroxy-2-[[6-[2-(4-methoxyphenyl)ethoxy]hexyl]amino]ethyl]-1,2-benzenediol] | 0.6 | 
Oc1ccc(C(O)CNCCCCCCOCCCCc2ccccc2)cc1O (stereo not shown) [Example 7, 4-[1-Hydroxy-2-[[6-(4-phenylbutoxy)hexyl]amino]ethyl]-1,2-benzenediol] |  | no adverse effects

Further lines, with some results ahead:

Potency (Isoprenaline = 1) [1] | SMILES | adverse effects [2]
0.17 | CC(CCCCCOCCc1ccccc1)NCC(O)c1ccc(O)c(CCO)c1 (stereo not shown) [Example 5, 2-Hydroxy-5-[1-hydroxy-2-[[1-metlayl-6-(2-phenylethoxy)hexyl]amino]ethyl]benzeneethanol hydrochloride (4:3)] | 
0.16 | CC(CCCCCOCCc1ccccc1)NCC(O)c1ccc(O)c2[nH]c(=O)ccc12 (stereo not shown) [Example 6, 8-Hydroxy-5-[1-hydroxy-2-[[1-methyl-6-(2-phenylethoxy)hexyl]amino]ethyl]-2(1H)-quinolinone] | no adverse effects
0.4 | CC(CCCCCOCCc1ccccc1)NC[C@H](O)c1ccc(O)c(O)c1 (stereo partly drawn) [Example 8, (1R)-4-[1-Hydroxy-2-[1-methyl-6-(2-phenylethoxy)hexyl]amino]ethyl-1,2-benzenediol.] | no adverse effects

Reference: patent EP0162576A1, “Ethanolamine compounds” (GLAXO GROUP LIMITED, priority 1984, dated 1985)
